From PubChem BioAssay AID1996 come the findings set out here.

Each structure is given as a SMILES string. In brackets after ≈: the same amount, converted by molar mass. Some results are limits rather than exact numbers.

The conditions of the data set: buffer; pH 7.4; 200.0 µM.
The kinetic solubility is the concentration staying in solution when a stock, usually in DMSO, is diluted into the medium. For `Cc1onc(-c2ccccc2)c1-c1csc(COc2ccccc2)n1`, the solubility (kinetic) came to 2.2 µg/mL (≈ 6.31 µM). The molecule `CSc1ccccc1C(=O)Nc1cc([N+](=O)[O-])ccc1C` had a kinetic solubility of 2 µg/mL (≈ 6.61 µM). The molecule `Cc1ccc(NS(=O)(=O)c2cccc(C(=O)N3CCCCC3)c2)cc1` yielded a solubility (kinetic) of over 53.8 µg/mL. The result for `OCC1CCCCN1C(=S)Nc1cccc(Cl)c1` (configuration not stated) reads over 42.7 µg/mL; that for `Cc1[nH]c2ccccc2c1CCNC(=O)c1c(N)no[n+]1[O-]`, 31.3 µg/mL (≈ 104 µM); that for `c1ccc(-c2cc3ccccc3[nH]2)cc1`, 0.7 µg/mL (≈ 3.62 µM). The molecule `Nc1ncnc2c1ncn2[C@@H]1O[C@H](CO)[C@@H](O)[C@H]1O` gave a solubility (kinetic) of over 40.1 µg/mL. Consider `CSc1ccc(S(=O)(=O)N2CCC(C(=O)NCc3ccccn3)CC2)cc1`, for which the solubility (kinetic) was 49.9 µg/mL (≈ 123 µM). Regarding `O=C(Cn1c(=S)[nH]c2ccccc2c1=O)N1CCc2ccccc2C1`, the kinetic solubility worked out at 3.9 µg/mL (≈ 11.1 µM). For `Cc1nc2ccccn2c1C(=O)NNC(=O)Nc1ccccc1` the value was over 46.4 µg/mL. `Cc1cc(=O)oc2cc(N3C(=O)CC(Cc4ccccc4)C3=O)ccc12` (configuration not stated) showed a kinetic solubility of 8.3 µg/mL (≈ 23.9 µM).

For `COc1cc(OC)cc(C(=O)OCC(=O)N2CCCC2)c1`, the solubility (kinetic) was over 44 µg/mL.

`O=C1c2ccccc2NC(c2ccccc2)N1CCCN1CCOCC1` (configuration not stated) had a solubility (kinetic) of over 52.7 µg/mL. `COc1ccc(NC(=O)c2ccc(Oc3ncccn3)cc2)cc1`: the solubility (kinetic) is 10.6 µg/mL (≈ 33 µM). For `O=C(CN1c2cccc3cccc(c23)S1(=O)=O)Nc1ccccc1` the value was 0.4 µg/mL (≈ 1.18 µM); for `CC[C@H](C)[C@H](NC(N)=O)C(=O)NCCc1ccc(OC)c(OC)c1`, over 50.6 µg/mL. As for `CS(=O)(=O)c1ccc(Cl)c(C(=O)NCC2CCCCC2)c1`, the solubility (kinetic) was over 49.5 µg/mL. The result for `O=C(c1c[nH]c2ccccc12)C(Cl)c1ccccc1` (configuration not stated) reads 2.1 µg/mL (≈ 7.79 µM); that for `Cc1cc(=O)oc2cc(NS(=O)(=O)c3ccccc3)ccc12`, 10.5 µg/mL (≈ 33.3 µM); that for `O=C(c1cc(S(=O)(=O)N2CCOCC2)ccc1F)N1CCc2ccccc21`, over 58.6 µg/mL. For `COc1ccc(Cl)cc1NC(=O)c1noc(C)c1[N+](=O)[O-]`, the kinetic solubility is 9 µg/mL (≈ 28.9 µM). `COc1ccc2c(c1)-c1nc(/N=C/c3cccc(OC)c3O)sc1CC2` registered a solubility (kinetic) of over 55 µg/mL. Turning to `Clc1ccc(-c2nc3ccccc3[nH]2)cn1`, the solubility (kinetic) amounted to 31.8 µg/mL (≈ 138 µM). Take `CC(NC(=O)COc1ccccc1)C(=O)NCc1ccccc1Cl` (configuration not stated): the kinetic solubility is over 52 µg/mL. The result for `COc1ccccc1CC(=O)NC(=O)c1ccccc1O` reads 41.5 µg/mL (≈ 145 µM). Regarding `Cc1ccccc1NC(=O)Cc1cccc(C(F)(F)F)c1`, the kinetic solubility worked out at 5.3 µg/mL (≈ 18.1 µM). In turn, `CC(C)(C)c1cc(C(=S)N2CCCC2)cc(C(C)(C)C)c1O` had a kinetic solubility of 4.7 µg/mL (≈ 14.7 µM). For the molecule `Cc1ccc(NC(=O)CC(C)CC(=O)NCc2ccccc2)cc1Cl` (configuration not stated), the kinetic solubility was under 0.4 µg/mL.

Regarding `CN1C(=O)C(=Cc2ccc(N3CCCCCC3)cc2)C(=O)N(C)C1=O`, the solubility (kinetic) amounted to 7 µg/mL (≈ 20.5 µM). The molecule `CCOc1nc(C)cc(COC)c1C(N)=O` yielded a solubility (kinetic) of over 33.6 µg/mL. For `CC(OC(=O)c1ccc(NC(=O)CC#N)cc1)C(=O)NC(c1ccccc1)c1ccccc1` (configuration not stated) the value was 8.5 µg/mL (≈ 19.3 µM). Take `Clc1cccc(C2Nc3cccc4cccc(c34)N2)c1`: the solubility (kinetic) came out at 5.3 µg/mL (≈ 18.9 µM). Molecule `CN(C(=O)COC(=O)c1ccc(S(=O)(=O)N2CCOCC2)cc1)c1ccccc1` came in with a kinetic solubility of 15.8 µg/mL (≈ 37.8 µM). For `COc1ccc(S(=O)(=O)N2CCCCCC2)cc1N` the value was over 42.7 µg/mL. With `Cc1ccc(N(CC(=O)N2CCOCC2)S(C)(=O)=O)cc1Cl`, the kinetic solubility is over 52 µg/mL. `O=C(CCl)Nc1c2c(nn1-c1ccccc1)CSC2` displayed a solubility (kinetic) of over 44.1 µg/mL. On to `Cc1cc(=O)oc2cc(NC(=O)c3cc(F)ccc3F)ccc12`, for which the kinetic solubility amounted to 2.1 µg/mL (≈ 6.66 µM). `CN(C)/C=C/C(=O)c1ccc(Cl)s1` showed a kinetic solubility of over 32.4 µg/mL. Take `O=C(N1CCOCC1)N1CCN(S(=O)(=O)c2ccc(F)cc2)CC1`: the kinetic solubility was over 53.6 µg/mL. Consider `COCCCn1c(SCC(=O)c2ccccc2)nc2ccccc2c1=O`, for which the solubility (kinetic) was 1.1 µg/mL (≈ 2.99 µM). Turning to `CC(C)(C)NC(=O)NC(=O)COC(=O)Cc1c(F)cccc1Cl`, the kinetic solubility was determined as 15.6 µg/mL (≈ 45.2 µM). `COc1ccc(/C=C/C(=O)N2CCOCC2)cc1OC`: the solubility (kinetic) is over 41.6 µg/mL. As for `O=C(CN1C(=O)NC2(CCCCC2)C1=O)NCCc1ccc(Cl)cc1Cl`, the solubility (kinetic) is over 59.7 µg/mL. `CC(=O)Nc1ccc(OC(=O)N(C)c2ccc(C)cc2)cc1` yielded a solubility (kinetic) of over 44.8 µg/mL. `COC(=O)C(C)N=Cc1ccccc1` (configuration not stated) displayed a kinetic solubility of 21 µg/mL (≈ 110 µM). For the molecule `O=C(Nc1ccc(C(F)(F)F)cc1)OC1CN2CCC1CC2` (configuration not stated), the kinetic solubility was determined as 45.1 µg/mL (≈ 143 µM). `CCOC(=O)c1[nH]c(C)c(C(=O)OCc2ccc(C)cc2)c1C` returned a solubility (kinetic) of 1.1 µg/mL (≈ 3.49 µM). In turn, `Cc1ccc(C(=O)NCc2ccco2)o1` displayed a kinetic solubility of over 30.8 µg/mL. As for `CCn1c(SCc2ccc(F)cc2)nc2c(c1=O)SCC2`, the kinetic solubility is 0.9 µg/mL (≈ 2.79 µM). With `N#Cc1c(C(F)(F)F)cc(-c2ccc(F)cc2)nc1SCC(=O)O`, the solubility (kinetic) stood at 51.2 µg/mL (≈ 144 µM). `Cc1cccc(NC(=O)CN2C(=O)NC3(CCCC3)C2=O)n1`: the kinetic solubility is over 45.3 µg/mL. Turning to `CC(=O)Nc1cccc(C(=O)OCC(=O)Nc2ccc(Cl)cn2)c1`, the kinetic solubility was found to be 6.9 µg/mL (≈ 19.8 µM).
